From the supplement of paper PMC10307832

How the values were obtained:
Experiment in all cases: relative viability (nuclei count vs DMSO), 5 days (fraction); higher = more cells survive
[1] = compound: C1CC(C1)(C(=O)O)C(=O)O.[NH2-].[NH2-].[Pt+2] [Carboplatin] + COc1cccc2cc(-c3nc([C@H]4CC[C@H](C(=O)O)CC4)n4ncnc(N)c34)[nH]c12 [OSI-027] (partner 0.5 µM)
How it was run: (§1)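 After 5 days of treatment, lung cancer cells in 1536-well plates were fixed and stained in a single step (final 0.05% Triton X-100, 1% formaldehyde, 1 ug/ml Hoechst) and their nuclei counted on 4× images. Treatment had been applied by pin tool the day after seeding as one drug alone or as a fixed anchor-drug dose with five library-drug doses (not always all listed) in √10 steps. Relative viability is the nuclei count of treated wells divided by that of vehicle wells, and values are medians of duplicate plates.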

[2] = compound: NS(=O)(=O)OC[C@@H]1C[C@@H](n2ccc3c(N[C@H]4CCc5ccccc54)ncnc32)C[C@@H]1O [MLN4924] + Cc1nc(NC(=O)N2CCC[C@H]2C(N)=O)sc1-c1ccnc(C(C)(C)C(F)(F)F)c1 [Alpelisib] (partner 2 µM)
How it was run: as §1

[3] = compound: NS(=O)(=O)OC[C@@H]1C[C@@H](n2ccc3c(N[C@H]4CCc5ccccc54)ncnc32)C[C@@H]1O [MLN4924] + Cc1nc(Nc2ncc(C(=O)Nc3c(C)cccc3Cl)s2)cc(N2CCN(CCO)CC2)n1 [Dasatinib] (partner 0.075 µM)
How it was run: as §1

[4] = compound: C1CC(C1)(C(=O)O)C(=O)O.[NH2-].[NH2-].[Pt+2] [Carboplatin] + CS(=O)(=O)N1CCN(Cc2cc3nc(-c4cccc5[nH]ncc45)nc(N4CCOCC4)c3s2)CC1 [Pictilisib] (partner 1 µM)
How it was run: as §1

Which results are given for UMC-11?
relative viability ([1]; first compound 0.08 µM): 0.462; relative viability ([1]; first compound 0.253 µM): 0.432; relative viability ([1]; first compound 0.8 µM): 0.456; relative viability ([1]; first compound 2.53 µM): 0.462; relative viability ([1]; first compound 8 µM): 0.405; relative viability ([2]; first compound 0.04 µM): 0.59; relative viability ([2]; first compound 0.1265 µM): 0.249; relative viability ([2]; first compound 0.4 µM): 0.254; relative viability ([2]; first compound 1.265 µM): 0.128; relative viability ([2]; first compound 4 µM): 0.13; relative viability ([3]; first compound 0.04 µM): 0.505; relative viability ([3]; first compound 0.1265 µM): 0.349; relative viability ([3]; first compound 0.4 µM): 0.251; relative viability ([3]; first compound 1.265 µM): 0.151; relative viability ([3]; first compound 4 µM): 0.177; relative viability ([4]; first compound 0.08 µM): 0.779; relative viability ([4]; first compound 0.253 µM): 0.777; relative viability ([4]; first compound 0.8 µM): 0.76; relative viability ([4]; first compound 2.53 µM): 0.78; relative viability ([4]; first compound 8 µM): 0.587
